ChEMBL document CHEMBL5715954, “Silencing c-Myc translation as a therapeutic strategy through targeting PI3Kδ and CK1ε in hematological malignancies” (Blood, 2017)

What was measured:
Set-up in all cases: scale not given: the % may be the effect or the level left
[1] = molecular target: T1, Testis-specific serine/threonine-protein kinase 2 (Homo sapiens) (UniProt Q96PF2); assay: Inhibition of human TSSK2 assessed as enzyme activity at 1 uM using KKKVSRSGLYRSPSMPENLNRPR as substrate preincubated for 20 mins followed by [gamma-33P]-ATP addition and measured after 120 mins by radiometric Hot-SpotSM Kinase assay relative to control
T1 sequence (whole entry): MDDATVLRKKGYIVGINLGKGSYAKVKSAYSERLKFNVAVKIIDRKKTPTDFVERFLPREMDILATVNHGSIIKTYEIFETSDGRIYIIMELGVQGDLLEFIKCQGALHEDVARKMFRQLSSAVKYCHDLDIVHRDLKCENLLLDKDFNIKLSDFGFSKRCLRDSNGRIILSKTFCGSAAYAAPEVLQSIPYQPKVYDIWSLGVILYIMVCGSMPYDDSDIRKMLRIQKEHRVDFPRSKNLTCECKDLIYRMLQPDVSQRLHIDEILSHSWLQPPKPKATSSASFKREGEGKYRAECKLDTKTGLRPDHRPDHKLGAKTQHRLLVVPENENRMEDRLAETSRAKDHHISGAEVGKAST

[2] = molecular target: CDK9/Cyclin K (Homo sapiens) (UniProt P50750+O75909); assay: Inhibition of human CDK9/cyclin K assessed as enzyme activity at 1 uM using KTFCGTPEYLAPEVRREPRILSEEEQEMFRDFDYIADWC as substrate preincubated for 20 mins followed by [gamma-33P]-ATP addition and measured after 120 mins by radiometric Hot-SpotSM Kinase assay relative to control; format: protein-complex assay
[3] = molecular target: T2, Tyrosine-protein kinase ZAP-70 (Homo sapiens) (UniProt P43403); assay: Inhibition of human ZAP70 assessed as enzyme activity at 1 uM using poly[Glu:Tyr] (4:1) as substrate preincubated for 20 mins followed by [gamma-33P]-ATP addition and measured after 120 mins by radiometric Hot-SpotSM Kinase assay relative to control
T2 sequence (whole entry): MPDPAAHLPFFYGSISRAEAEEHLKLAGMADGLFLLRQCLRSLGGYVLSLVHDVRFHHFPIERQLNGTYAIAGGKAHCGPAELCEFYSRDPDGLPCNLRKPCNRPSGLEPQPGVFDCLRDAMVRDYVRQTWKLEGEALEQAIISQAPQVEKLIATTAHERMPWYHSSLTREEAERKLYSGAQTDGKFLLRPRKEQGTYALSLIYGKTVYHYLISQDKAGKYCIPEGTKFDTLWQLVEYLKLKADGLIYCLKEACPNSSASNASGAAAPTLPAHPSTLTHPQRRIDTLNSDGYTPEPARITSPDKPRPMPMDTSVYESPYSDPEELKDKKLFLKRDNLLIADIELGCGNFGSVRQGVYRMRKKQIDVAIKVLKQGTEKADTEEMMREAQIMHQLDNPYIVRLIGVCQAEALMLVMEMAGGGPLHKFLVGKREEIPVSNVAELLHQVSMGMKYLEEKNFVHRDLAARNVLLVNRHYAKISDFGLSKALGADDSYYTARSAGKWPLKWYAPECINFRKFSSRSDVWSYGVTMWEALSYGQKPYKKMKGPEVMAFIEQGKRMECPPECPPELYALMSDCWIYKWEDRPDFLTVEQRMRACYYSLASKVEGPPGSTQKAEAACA

[4] = molecular target: Serine/threonine-protein kinase pim-1 (Homo sapiens) (UniProt P11309); assay: Inhibition of human PIM1 assessed as enzyme activity at 1 uM using RSRHSSYPAGT as substrate preincubated for 20 mins followed by [gamma-33P]-ATP addition and measured after 120 mins by radiometric Hot-SpotSM Kinase assay relative to control
[5] = molecular target: T3, MAP/microtubule affinity-regulating kinase 4 (Homo sapiens) (UniProt Q96L34); assay: Inhibition of human MARK4 assessed as enzyme activity at 1 uM using KKKVSRSGLYRSPSMPENLNRPR as substrate preincubated for 20 mins followed by [gamma-33P]-ATP addition and measured after 120 mins by radiometric Hot-SpotSM Kinase assay relative to control
T3 sequence (whole entry): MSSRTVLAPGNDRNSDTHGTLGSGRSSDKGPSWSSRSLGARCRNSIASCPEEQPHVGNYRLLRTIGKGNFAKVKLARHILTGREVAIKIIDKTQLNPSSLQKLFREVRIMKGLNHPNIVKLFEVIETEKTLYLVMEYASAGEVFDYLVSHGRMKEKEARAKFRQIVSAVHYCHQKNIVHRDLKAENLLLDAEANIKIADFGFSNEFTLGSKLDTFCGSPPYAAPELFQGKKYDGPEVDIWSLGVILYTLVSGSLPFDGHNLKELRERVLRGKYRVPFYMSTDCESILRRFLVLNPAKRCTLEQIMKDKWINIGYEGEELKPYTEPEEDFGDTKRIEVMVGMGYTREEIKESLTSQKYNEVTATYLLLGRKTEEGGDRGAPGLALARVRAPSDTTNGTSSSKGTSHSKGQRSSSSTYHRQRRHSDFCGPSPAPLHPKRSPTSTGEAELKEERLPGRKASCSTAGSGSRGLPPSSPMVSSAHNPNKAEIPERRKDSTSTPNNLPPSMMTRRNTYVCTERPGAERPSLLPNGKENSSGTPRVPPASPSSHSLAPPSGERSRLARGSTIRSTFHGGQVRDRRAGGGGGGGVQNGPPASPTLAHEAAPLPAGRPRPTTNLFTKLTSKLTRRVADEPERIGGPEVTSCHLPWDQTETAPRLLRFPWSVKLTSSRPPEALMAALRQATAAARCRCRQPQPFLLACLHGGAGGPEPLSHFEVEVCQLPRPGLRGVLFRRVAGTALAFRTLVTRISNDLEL

[6] = molecular target: Serine/threonine-protein kinase WNK3 (Homo sapiens) (UniProt Q9BYP7); assay: Inhibition of human WNK3 assessed as enzyme activity at 1 uM using myelin basic protein as substrate preincubated for 20 mins followed by [gamma-33P]-ATP addition and measured after 120 mins by radiometric Hot-SpotSM Kinase assay relative to control
[7] = molecular target: Epithelial discoidin domain-containing receptor 1 (Homo sapiens) (UniProt Q08345); assay: Inhibition of human DDR1 assessed as enzyme activity at 1 uM using KKSRGDYMTMQIG as substrate preincubated for 20 mins followed by [gamma-33P]-ATP addition and measured after 120 mins by radiometric Hot-SpotSM Kinase assay relative to control
Epithelial discoidin domain-containing receptor 1 (Homo sapiens), sequence (Q08345 whole entry, the tested form may be a part): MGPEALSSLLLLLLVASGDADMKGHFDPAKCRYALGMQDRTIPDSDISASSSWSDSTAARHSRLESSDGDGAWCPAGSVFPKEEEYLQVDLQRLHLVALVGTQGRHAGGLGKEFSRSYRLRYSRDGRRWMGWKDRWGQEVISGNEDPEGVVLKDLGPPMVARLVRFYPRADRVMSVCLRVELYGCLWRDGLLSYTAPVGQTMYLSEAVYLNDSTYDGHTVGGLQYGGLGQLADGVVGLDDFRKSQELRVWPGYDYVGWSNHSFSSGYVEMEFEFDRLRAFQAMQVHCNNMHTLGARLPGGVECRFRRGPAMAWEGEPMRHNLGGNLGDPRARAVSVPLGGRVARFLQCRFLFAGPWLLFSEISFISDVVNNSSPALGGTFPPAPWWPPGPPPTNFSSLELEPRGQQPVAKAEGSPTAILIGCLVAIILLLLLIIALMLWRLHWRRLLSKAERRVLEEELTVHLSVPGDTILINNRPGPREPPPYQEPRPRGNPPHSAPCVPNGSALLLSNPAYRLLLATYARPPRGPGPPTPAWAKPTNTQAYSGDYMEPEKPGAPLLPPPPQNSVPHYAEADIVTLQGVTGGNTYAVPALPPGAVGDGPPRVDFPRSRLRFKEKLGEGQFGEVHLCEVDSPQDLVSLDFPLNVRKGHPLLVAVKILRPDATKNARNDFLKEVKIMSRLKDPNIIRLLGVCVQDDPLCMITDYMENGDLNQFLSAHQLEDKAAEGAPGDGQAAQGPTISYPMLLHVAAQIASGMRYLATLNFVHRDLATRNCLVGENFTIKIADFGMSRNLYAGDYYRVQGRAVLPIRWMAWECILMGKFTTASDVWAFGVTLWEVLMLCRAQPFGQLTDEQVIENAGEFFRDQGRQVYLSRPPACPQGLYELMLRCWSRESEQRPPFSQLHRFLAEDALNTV

Serine/threonine-protein kinase WNK3 (Homo sapiens), sequence (Q9BYP7 whole entry, the tested form may be a part): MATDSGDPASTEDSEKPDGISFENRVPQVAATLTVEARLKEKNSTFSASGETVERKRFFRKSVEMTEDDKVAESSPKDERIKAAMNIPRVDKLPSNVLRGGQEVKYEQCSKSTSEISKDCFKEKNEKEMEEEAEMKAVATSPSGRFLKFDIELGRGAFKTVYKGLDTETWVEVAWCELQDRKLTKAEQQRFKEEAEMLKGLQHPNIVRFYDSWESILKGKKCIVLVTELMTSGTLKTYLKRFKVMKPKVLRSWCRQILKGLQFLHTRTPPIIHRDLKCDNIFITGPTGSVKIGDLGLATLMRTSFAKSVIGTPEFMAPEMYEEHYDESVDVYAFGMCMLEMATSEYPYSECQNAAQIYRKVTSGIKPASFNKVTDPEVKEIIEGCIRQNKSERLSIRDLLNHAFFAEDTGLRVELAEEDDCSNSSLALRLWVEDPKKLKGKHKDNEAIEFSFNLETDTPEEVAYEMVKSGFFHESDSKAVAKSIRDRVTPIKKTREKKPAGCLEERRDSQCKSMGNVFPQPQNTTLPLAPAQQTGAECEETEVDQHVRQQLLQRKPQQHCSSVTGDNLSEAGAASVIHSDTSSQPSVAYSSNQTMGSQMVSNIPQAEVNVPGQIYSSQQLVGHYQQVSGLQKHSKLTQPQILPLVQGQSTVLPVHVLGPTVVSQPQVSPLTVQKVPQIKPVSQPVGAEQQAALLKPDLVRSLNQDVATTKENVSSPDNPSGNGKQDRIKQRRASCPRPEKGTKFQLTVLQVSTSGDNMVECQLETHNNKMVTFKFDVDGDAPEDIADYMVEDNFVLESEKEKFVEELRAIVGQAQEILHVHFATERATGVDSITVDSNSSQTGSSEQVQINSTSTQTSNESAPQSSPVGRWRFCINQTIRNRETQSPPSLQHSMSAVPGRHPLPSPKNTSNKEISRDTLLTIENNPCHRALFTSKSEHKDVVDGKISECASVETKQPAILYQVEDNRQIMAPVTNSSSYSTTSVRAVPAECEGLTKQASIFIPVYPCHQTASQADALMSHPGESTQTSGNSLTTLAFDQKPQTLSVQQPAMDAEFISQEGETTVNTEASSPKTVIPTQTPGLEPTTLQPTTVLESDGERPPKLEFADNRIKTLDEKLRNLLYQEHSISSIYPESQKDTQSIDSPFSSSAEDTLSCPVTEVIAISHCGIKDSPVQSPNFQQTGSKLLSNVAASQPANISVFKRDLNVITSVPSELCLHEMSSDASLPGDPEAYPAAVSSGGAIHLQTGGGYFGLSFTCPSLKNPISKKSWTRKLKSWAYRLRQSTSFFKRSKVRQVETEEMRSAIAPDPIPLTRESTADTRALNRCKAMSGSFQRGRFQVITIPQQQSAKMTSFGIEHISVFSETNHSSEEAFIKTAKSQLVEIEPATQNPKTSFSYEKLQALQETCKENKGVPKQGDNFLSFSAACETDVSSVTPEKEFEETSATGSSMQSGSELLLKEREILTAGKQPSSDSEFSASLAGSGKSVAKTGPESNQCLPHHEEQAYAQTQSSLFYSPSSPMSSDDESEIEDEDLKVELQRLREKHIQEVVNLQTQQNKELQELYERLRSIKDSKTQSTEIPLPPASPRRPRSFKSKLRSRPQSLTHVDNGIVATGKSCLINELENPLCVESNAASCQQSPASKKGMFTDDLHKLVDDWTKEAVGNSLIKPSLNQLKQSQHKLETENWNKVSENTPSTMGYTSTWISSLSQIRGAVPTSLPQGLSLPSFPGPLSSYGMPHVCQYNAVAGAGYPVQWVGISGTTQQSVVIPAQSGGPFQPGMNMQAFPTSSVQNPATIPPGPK
Serine/threonine-protein kinase pim-1 (Homo sapiens), sequence (P11309 whole entry, looked up): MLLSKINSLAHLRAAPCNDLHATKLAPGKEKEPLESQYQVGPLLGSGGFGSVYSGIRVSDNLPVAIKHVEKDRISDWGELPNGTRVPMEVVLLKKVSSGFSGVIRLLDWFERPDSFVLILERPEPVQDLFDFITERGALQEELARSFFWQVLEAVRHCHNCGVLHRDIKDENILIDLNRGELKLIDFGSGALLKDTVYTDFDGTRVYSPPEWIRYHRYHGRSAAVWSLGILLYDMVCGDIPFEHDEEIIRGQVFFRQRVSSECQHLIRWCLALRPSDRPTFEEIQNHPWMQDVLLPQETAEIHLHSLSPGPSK

SMILES	Activity [1] [%]	Activity [2] [%]	Activity [3] [%]	Activity [4] [%]	Activity [5] [%]	Activity [6] [%]	Activity [7] [%]
C[C@H](Nc1ncnc2nc[nH]c12)c1cc2cccc(Cl)c2c(=O)n1-c1ccccc1	98	93.1	99.7	99.6	109	86.8	88.6
CC[C@H](Nc1ncnc2[nH]cnc12)c1nc2cccc(F)c2c(=O)n1-c1ccccc1	104	91.5	100	99.6	97	86.4	83.8
CC(C)Oc1ccc(-c2nn([C@@H](C)c3oc4ccc(F)cc4c(=O)c3-c3cccc(F)c3)c3ncnc(N)c23)cc1F [UMBRALISIB]	100	88.8	99.4	98.2	112	82.7	83.1
